Results as given in patent US7692014B2, “Inhibitors of the HIV integrase enzyme” (Pfizer, Inc., priority 2004, dated 2010).

Molecular target: T1, Full-length wild type HIV-1 integrase (SF1) (Human immunodeficiency virus type 1 group M subtype B, UniProt P04585)
T1 construct: made in house; host or cells: E. coli BL21 (DE3), pET24a vector
Test: Integrase strand-transfer scintillation proximity assay
Type: biochemical
Conditions: IC50, integrase strand-transfer SPA
From the text: Integrase Strand-Transfer Scintillation Proximity Assay Oligonucleotides
The annealed product represents preprocessed viral ds-DNA derived from the LTR U5 sequence of the viral genome. A ds-DNA control to test for non-specific interactions was made using a 3′ di-deoxy derivative of oligonucleotide #1 annealed to oligonucleotide #2. The CA overhang at the 5′ end of the non-biotinylated strand of the ds-DNA was created artificially by using a complimentary DNA oligonucleotide shortened by 2 base pairs. This configuration eliminates the requisite 3′ processing step of the integrase enzyme prior to the strand-transfer mechanism.
Host ds-DNA was prepared as an unlabeled and [^3H]-thymidine labeled product from annealed oligonucleotide #3—5-[…]-3′ (SEQ ID NO: 3), and oligonucleotide #4—5′-[…]-3′ (SEQ ID NO: 4), both synthesized by TriLink BioTechnologies, Inc. (San Diego, Calif.). The annealed product had overhanging 3′ ends of poly(dA). […] The radiolabeled product was purified using a NENSORB cartridge and stored in stabilized aqueous solution (PerkinElmer).
Reagents: Streptavidin-coated polyvinyltoluene (PVT) SPA beads were purchased from Amersham Biosciences (Piscataway, N.J.). Cesium chloride was purchased from Shelton Scientific, Inc. (Shelton, Conn.). White, polystyrene, flat-bottom, non-binding surface, 96-well plates were purchased from Corning. All other buffer components were purchased from Sigma (St. Louis, Mo.) unless otherwise indicated. Enzyme Construction: Full-length wild type HIV-1 integrase (SF1) sequence (amino acids 1-288) was constructed in a pET24a vector (Novagen, Madison, Wis.). […] Enzyme Purification: Full length wild-type HIV Integrase was expressed in E.coli BL21 (DE3) cells and induced with 1 mM isopropyl-1 thio-β-D-galactopyranoside (IPTG) when cells reached an optical density between 0.8-1.0 at 600 nm. Cells were lysed by microfluidation in 50 mM HEPES pH 7.0, 75 mM NaCl, 5 mM DTT, 1 mM 4-(2-Aminoethyl)benzenesulfonylfluoride HCl (AEBSF). Lysate was then centrifuged 20 minutes at 11 k rpm in GSA rotor in Sorvall RC-5B at 4° C. Supernant was discarded and pellet resuspended in 50 mM HEPES pH 7.0, 750 mM NaCl, 5 mM DTT, 1 mM AEBSF and homogenized in a 40 mL Dounce homogenizer for 20 minutes on ice. Homogenate was then centrifuged 20 minutes at 11 k rpm in SS34 rotor in Sorvall RC-5B at 4° C. Supernant was discarded and pellet resuspended in 50 mM HEPES pH 7.0, 750 mM NaCl, 25 mM CHAPS, 5 mM DTT, 1 mM AEBSF. Preparation was then centrifuged 20 minutes at 11 k rpm in SS34 rotor in Sorvall RC-5B at 4° C.
Supernant was then diluted 1:1 with 50 mM HEPES pH 7.0, 25 mM CHAPS, 1 mM DTT, 1 mM AEBSF and loaded onto a Q-Sepharose column pre-equilibrated with 50 mM HEPES, pH 7.0, 375 mM NaCl, 25 mM CHAPS, 1 mM DTT, 1 mM AEBSF. The flow through peak was collected and NaCl diluted to 0.1 M with 50 mM HEPES pH 7.0, 25 mM CHAPS, 1 mM DTT, 0.5 mM AEBSF and loaded onto a SP-Sepharose column pre-equilibrated with 50 mM HEPES pH 7.0, 100 mM NaCl, 25 mM CHAPS, 1 mM DTT, 0.5 mM AEBSF. After washing the column with the equilibration buffer, a 100 to 400 mM NaCl gradient was run. The eluted integrase was concentrated and run on a S-300 gel diffusion column using 50 mM HEPES pH 7.0, 500 mM NaCl, 25 mM CHAPS, 1 mM DTT, 0.5 mM AEBSF. […] All columns were run in a 4° C. cold room.
Viral DNA Bead Preparation: Streptavidin-coated SPA beads were suspended to 20 mg/mL in 25 mM 3-morpholinopropanesulfonic acid (MOPS) (pH 7.2) and 1.0% NaN3.

SMILES | IC50
NC(=O)[C@@H]1CCCN1Cc1cn(Cc2ccc(F)cc2)c2cnc3c(=O)n(O)ccc3c12 [Example 5, 1-{[3-(4-fluorobenzyl)-7-hydroxy-6-oxo-6,7-dihydro-3H-pyrrolo[2,3-c]-1,7-naphthyridin-1-yl]methyl}-L-prolinamide] | 18 nM

Same assay, conditions: integrase strand-transfer SPA; read-out: IC50

SMILES | IC50
O=c1c2ncc3c(ccn3Cc3ccc(F)cc3)c2ccn1O [Example 1, 3-(4-Fluorobenzyl)-7-hydroxy-3,7-dihydro-6H-pyrrolo[2,3-c]-1,7-naphthyridin-6-one] | 20 nM
O=C1c2ncc3c(ccn3Cc3ccc(F)cc3)c2CCN1O [Example 2, 3-(4-Fluorobenzyl)-7-hydroxy-3,7,8,9-tetrahydro-6H-pyrrolo[2,3-c]-1,7-naphthyridin-6-one] | 30 nM
O=C1c2ncc3c(ccn3Cc3ccc(F)cc3)c2CCCN1O [Example 3, 3-(4-Fluorobenzyl)-7-hydroxy-7,8,9,10-tetrahydropyrrolo[3′,2′:4,5]pyrido[2,3-c]azepin-6(3H)-one] | 17 nM
CN(C)Cc1cn(Cc2ccc(F)cc2)c2cnc3c(=O)n(O)ccc3c12 [Example 4, 1-[(dimethylamino)methyl]-3-(4-fluorobenzyl)-7-hydroxy-3,7-dihydro-6H-pyrrolo[2,3-c]-1,7-naphthyridin-6-one] | 8 nM
O=C1CN(Cc2cn(Cc3ccc(F)cc3)c3cnc4c(=O)n(O)ccc4c23)CCN1 [Example 6, 3-(4-fluorobenzyl)-7-hydroxy-1-[(3-oxopiperazin-1-yl)methyl]-3,7-dihydro-6H-pyrrolo(2,3-c]-1,7-naphthyridin-6-one] | 7 nM
CN1CCN(Cc2cn(Cc3ccc(F)cc3)c3cnc4c(=O)n(O)ccc4c23)CC1 [Example 7, 3-(4-fluorobenzyl)-7-hydroxy-1-[(4-methylpiperazin-1-yl)methyl]-3,7-dihydro-6H-pyrrolo[2,3-c]-1,7-naphthyridin-6-one] | 17 nM
CCN1CCN(Cc2cn(Cc3ccc(F)cc3)c3cnc4c(=O)n(O)ccc4c23)CC1 [Example 8, 1[(4-ethylpiperazin-1-yl)methyl]-3-(4-fluorobenzyl)-7-hydroxy-3,7-dihydro-6H-pyrrolo[2,3-c]-1,7-naphthyridin-6-one] | 14 nM
O=c1c2ncc3c(c(CN4CCc5ccccc5C4)cn3Cc3ccc(F)cc3)c2ccn1O [Example 10, 1-(3,4-dihydroisoquinolin-2(1H)-ylmethyl)-3-(4-fluorobenzyl)-7-hydroxy-3,7-dihydro-6H-pyrrolo[2,3-c]-1,7-naphthyridin-6-one] | 40 nM
CCCCCN(C)Cc1cn(Cc2ccc(F)cc2)c2cnc3c(=O)n(O)ccc3c12 [Example 11, 3-(4-fluorobenzyl)-7-hydroxy-1-{[methyl(pentyl)amino]methyl}-3,7-dihydro-6H-pyrrolo[2,3-c]-1,7-naphthyridin-6-one] | 6 nM
NC(=O)[C@H]1CCCN1Cc1cn(Cc2ccc(F)cc2)c2cnc3c(=O)n(O)ccc3c12 [Example 12, 1-{[3-(4-fluorobenzyl)-7-hydroxy-6-oxo-6,7-dihydro-3H-pyrrolo[2,3-c]-1,7-naphthyridin-1-yl]methyl)-D-prolinamide] | 13 nM
O=C1NCCC12CCN(Cc1cn(Cc3ccc(F)cc3)c3cnc4c(=O)n(O)ccc4c13)CC2 [Example 13, 3-(4-fluorobenzyl)-7-hydroxy-1-[(1-oxo-2,8-diazaspiro[4,5]dec-8-yl)methyl]-3,7-dihydro-6H-pyrrolo[2,3-c]-1,7-naphthyridin-6-one] | 8 nM
CCN(Cc1cn(Cc2ccc(F)cc2)c2cnc3c(=O)n(O)ccc3c12)C1CCCCC1 [Example 14, 1-{[cyclohexyl(ethyl)amino]methyl}-3-(4-fluorobenzyl)-7-hydroxy-3,7-dihydro-6H-pyrrolo[2,3-c]-1,7-naphthyridin-6-one] | 13 nM
O=C(CN1CCN(Cc2cn(Cc3ccc(F)cc3)c3cnc4c(=O)n(O)ccc4c23)CC1)N1CCCC1 [Example 15, 3-(4-fluorobenzyl)-7-hydroxy-1-{[4-(2-oxo-2-pyrrolidin-1-ylethyl)piperazin-1-yl]methyl}-3,7-dihydro-6H-pyrrolo[2,3-c]-1,7-naphthyridin-6-one] | 5 nM
CN(CCc1ccccn1)Cc1cn(Cc2ccc(F)cc2)c2cnc3c(=O)n(O)ccc3c12 [Example 16, 3-(4-fluorobenzyl)-7-hydroxy-1-{[methyl (2-pyridin-2-ylethyl)amino]methyl}-3,7-dihydro-6H-pyrrolo[2,3-c]-1,7-naphthyridin-6-one] | 6 nM
O=C1CCCN1CC1(O)CCN(Cc2cn(Cc3ccc(F)cc3)c3cnc4c(=O)n(O)ccc4c23)CC1 [Example 18, 3-(4-fluorobenzyl)-7-hydroxy-1-({4-hydroxy-4-[(2-oxopyrrolidin-1-yl)methyl]piperidin-1-yl}methyl)-3,7-dihydro-6H-pyrrolo[2,3-c]-1,7-naphthyridin-6-one] | 11 nM
O=C1CCN(Cc2cn(Cc3ccc(F)cc3)c3cnc4c(=O)n(O)ccc4c23)CCN1 [Example 19, 3-(4-fluorobenzyl)-7-hydroxy-1-[(5-oxo-1,4-diazepan-1-yl)methyl]-3,7-dihydro-6H-pyrrolo[2,3-c]-1,7-naphthyridin-6-one] | 5 nM
NC(=O)[C@@H]1CCCN1S(=O)(=O)c1cn(Cc2ccc(F)cc2)c2cnc3c(=O)n(O)ccc3c12 [Example 20, 1-{[3-(4-fluorobenzyl)-7-hydroxy-6-oxo-6,7-dihydro-3H-pyrrolo[2,3-c]-1,7-naphthyridin-1-yl]sulfonyl)-L-prolinamide] | 9 nM
O=c1c2ncc3c(c(S(=O)(=O)NCCc4c[nH]c5ccccc45)cn3Cc3ccc(F)cc3)c2ccn1O [Example 21, 3-(4-fluorobenzyl)-7-hydroxy-N-{2-(1H-indol-3-yl)ethyl]-6-oxo-6,7-dihydro-3H-pyrrolo[2,3-c]-1,7-naphthyridine-1-sulfonamide] | 46 nM
O=C1CN(S(=O)(=O)c2cn(Cc3ccc(F)cc3)c3cnc4c(=O)n(O)ccc4c23)CCN1 [Example 22, 3-(4-fluorobenzyl)-7-hydroxy-1-[(3-oxopiperazin-1-yl)sulfonyl]-3,7-dihydro-6H-pyrrolo[2,3-c]-1,7-naphthyridin-6-one] | 6 nM
CN(C)S(=O)(=O)c1cn(Cc2ccc(F)cc2)c2cnc3c(=O)n(O)ccc3c12 [Example 23, 3-(4-fluorobenzyl)-7-hydroxy-N,N-dimethyl-6-oxo-6,7-dihydro-3H-pyrrolo[2,3-c]-1-naphthyridine-1-sulfonamide] | 10 nM
O=c1c2ncc3c(c(S(=O)(=O)NCC(F)(F)F)cn3Cc3ccc(F)cc3)c2ccn1O [Example 24, 3-(4-fluorobenzyl)-7-hydroxy-6-oxo-N-(2,2,2-trifluoroethyl)-6,7-dihydro-3H-pyrrolo[2,3-c]-1,7-naphthyridine-1-sulfonamide] | 5 nM
O=c1c2ncc3c(c(S(=O)(=O)NCc4ccc(F)cc4)cn3Cc3ccc(F)cc3)c2ccn1O [Example 25, N,3-bis(4-fluorobenzyl)-7-hydroxy-6-axo-6,7-dihydro-3H-pyrrolo[2,3-c]-1,7-naphthyridine-1-sulfonamide] | 35 nM
O=C(c1cn(Cc2ccc(F)cc2)c2cnc3c(=O)n(O)ccc3c12)N1CCCC1 [Example 26, 3-(4-fluorobenzyl)-7-hydroxy-1-(pyrrolidin-1-ylcarbonyl)-3,7-dihydro-6H-pyrrolo[2,3-c]-1,7-naphthyridin-6-one] | 9 nM
